Reference: patent publication US20090270394A1, “CYCLYLAMINE DERIVATIVES AS CALCIUM CHANNEL BLOCKERS” (priority 2008, published 2009)

Target: T1, Human Cav2.2 channels (Homo sapiens, UniProt Q00975)
T1 construct: expressed in transfected cells
Assay: Fluorescent assay for Cav2.2 channels using potassium depolarization to initiate channel opening
Assay type: cell-based
Conditions: for inhibition at 10 µM: 10 μM compound, read-out: Cav 2.2 Activity % Inh at 10 μM; for inhibition at 30 µM: 30 μM compound, read-out: Cav 2.2 Activity % Inh at 30 μM; for IC50: 30 mM K (block of open and inactivated channels), read-out: Cav 2.2 Activity IC50 at 30 mM K
Outline: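 HEK293 cells stably expressing human Cav2.2 with alpha2-delta and beta subunits plus Kir2.3, dye-loaded, then held 30 min at 25° C. in 4, 12, 25 or 30 mM K+ pre-polarization buffer with compound.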

T1 sequence (Q00975 whole entry): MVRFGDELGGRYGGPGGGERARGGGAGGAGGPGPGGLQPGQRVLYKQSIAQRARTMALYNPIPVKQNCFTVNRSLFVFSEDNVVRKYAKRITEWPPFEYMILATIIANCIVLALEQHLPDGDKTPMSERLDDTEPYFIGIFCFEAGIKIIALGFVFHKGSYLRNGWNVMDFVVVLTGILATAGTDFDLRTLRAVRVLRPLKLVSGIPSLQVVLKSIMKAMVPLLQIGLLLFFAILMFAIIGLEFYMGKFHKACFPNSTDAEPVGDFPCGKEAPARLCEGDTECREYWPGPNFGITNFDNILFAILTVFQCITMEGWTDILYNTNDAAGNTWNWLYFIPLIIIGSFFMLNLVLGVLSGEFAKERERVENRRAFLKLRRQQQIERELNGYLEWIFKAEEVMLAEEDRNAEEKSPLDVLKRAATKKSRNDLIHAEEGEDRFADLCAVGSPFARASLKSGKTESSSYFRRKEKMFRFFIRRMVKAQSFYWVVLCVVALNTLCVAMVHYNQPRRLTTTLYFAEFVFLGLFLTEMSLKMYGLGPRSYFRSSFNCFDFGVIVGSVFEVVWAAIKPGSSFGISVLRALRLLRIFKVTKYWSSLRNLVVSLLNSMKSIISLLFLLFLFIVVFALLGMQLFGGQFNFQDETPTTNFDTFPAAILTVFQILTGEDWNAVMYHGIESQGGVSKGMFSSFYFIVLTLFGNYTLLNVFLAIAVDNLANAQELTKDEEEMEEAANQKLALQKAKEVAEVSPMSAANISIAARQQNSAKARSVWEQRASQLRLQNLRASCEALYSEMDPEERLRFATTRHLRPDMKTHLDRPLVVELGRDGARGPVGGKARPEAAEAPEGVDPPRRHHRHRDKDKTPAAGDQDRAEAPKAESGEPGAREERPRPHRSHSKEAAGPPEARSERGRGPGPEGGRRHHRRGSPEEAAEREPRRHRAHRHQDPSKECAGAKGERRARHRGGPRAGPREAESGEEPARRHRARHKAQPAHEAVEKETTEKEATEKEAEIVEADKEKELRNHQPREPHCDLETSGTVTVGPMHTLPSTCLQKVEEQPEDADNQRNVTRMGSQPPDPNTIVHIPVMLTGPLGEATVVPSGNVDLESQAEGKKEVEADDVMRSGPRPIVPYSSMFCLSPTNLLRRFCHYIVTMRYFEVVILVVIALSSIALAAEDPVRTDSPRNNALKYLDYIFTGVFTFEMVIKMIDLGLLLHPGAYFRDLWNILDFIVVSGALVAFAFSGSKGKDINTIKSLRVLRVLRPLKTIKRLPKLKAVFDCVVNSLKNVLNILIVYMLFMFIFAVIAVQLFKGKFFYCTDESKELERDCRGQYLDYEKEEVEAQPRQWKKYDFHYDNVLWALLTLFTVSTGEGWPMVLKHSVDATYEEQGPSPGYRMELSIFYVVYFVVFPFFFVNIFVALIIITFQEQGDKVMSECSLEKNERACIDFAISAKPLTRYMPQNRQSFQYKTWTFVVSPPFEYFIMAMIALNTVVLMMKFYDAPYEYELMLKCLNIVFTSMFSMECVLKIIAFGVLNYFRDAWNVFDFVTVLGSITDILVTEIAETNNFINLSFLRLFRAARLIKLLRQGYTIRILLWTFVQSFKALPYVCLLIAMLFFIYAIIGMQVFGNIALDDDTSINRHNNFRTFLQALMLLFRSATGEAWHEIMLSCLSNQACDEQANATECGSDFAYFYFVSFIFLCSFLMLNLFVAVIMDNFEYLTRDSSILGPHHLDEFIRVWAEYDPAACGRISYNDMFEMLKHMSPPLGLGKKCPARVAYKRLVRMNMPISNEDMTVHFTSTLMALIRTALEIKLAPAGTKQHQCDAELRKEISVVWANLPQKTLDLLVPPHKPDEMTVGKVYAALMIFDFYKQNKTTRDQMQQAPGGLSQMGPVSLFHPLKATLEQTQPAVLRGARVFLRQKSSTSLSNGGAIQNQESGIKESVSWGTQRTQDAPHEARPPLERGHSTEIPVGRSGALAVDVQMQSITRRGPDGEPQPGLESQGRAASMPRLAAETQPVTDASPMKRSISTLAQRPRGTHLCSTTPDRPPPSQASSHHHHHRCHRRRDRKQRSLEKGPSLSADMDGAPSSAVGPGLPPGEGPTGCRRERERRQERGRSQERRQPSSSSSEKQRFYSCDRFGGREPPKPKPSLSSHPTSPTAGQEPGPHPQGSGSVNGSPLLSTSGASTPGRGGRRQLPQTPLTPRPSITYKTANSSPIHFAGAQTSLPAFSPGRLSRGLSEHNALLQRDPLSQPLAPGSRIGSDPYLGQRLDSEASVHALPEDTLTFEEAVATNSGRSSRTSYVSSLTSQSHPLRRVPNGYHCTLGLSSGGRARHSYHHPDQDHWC
T1 sequence (P54289 25-1103 partner): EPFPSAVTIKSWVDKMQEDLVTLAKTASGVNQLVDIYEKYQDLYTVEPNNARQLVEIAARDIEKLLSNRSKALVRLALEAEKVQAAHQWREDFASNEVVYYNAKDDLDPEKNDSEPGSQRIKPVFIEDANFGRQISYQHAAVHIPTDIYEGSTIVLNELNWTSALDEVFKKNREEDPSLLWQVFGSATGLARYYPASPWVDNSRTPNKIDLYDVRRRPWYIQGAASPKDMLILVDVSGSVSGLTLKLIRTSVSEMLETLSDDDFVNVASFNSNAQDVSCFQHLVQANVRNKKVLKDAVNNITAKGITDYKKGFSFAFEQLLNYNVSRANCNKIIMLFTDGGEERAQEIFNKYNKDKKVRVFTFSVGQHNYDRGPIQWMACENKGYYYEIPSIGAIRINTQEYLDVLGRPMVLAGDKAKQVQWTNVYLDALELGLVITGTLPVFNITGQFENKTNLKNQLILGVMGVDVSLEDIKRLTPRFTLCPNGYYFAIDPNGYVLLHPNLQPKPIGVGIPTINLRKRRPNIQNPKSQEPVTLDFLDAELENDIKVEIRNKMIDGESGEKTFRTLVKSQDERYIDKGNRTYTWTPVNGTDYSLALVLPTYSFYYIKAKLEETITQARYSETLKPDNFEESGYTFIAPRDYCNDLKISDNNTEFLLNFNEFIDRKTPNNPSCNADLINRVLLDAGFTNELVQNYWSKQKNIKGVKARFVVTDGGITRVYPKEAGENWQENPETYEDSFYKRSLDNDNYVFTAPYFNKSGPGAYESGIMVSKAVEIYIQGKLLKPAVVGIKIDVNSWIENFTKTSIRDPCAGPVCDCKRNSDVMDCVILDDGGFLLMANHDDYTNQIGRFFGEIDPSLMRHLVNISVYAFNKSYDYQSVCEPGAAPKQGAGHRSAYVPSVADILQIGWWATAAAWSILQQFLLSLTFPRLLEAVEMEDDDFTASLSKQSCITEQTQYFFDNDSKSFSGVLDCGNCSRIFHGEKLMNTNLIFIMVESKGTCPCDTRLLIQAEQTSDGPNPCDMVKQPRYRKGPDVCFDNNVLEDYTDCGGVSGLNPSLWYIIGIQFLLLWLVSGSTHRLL
T1 sequence (P54284 whole entry partner): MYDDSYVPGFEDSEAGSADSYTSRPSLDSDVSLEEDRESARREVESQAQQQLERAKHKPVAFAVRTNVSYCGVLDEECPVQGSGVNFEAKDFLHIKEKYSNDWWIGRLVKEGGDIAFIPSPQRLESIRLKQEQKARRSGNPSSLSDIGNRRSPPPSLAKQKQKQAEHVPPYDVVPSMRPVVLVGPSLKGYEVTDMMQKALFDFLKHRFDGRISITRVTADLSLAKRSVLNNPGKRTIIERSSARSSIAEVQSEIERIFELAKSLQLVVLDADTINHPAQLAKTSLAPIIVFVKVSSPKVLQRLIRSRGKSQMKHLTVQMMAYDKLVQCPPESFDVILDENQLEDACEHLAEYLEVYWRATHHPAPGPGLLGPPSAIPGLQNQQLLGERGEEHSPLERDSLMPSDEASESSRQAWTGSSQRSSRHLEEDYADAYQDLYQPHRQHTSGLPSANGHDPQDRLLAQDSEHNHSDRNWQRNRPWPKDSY

SMILES	inhibition at 10 µM [%]	inhibition at 30 µM [%]	IC50 [nM]
CC(C)(C)c1cc(C(=O)NC2(C(=O)NCc3ccccc3)CCCC2)cc(C(C)(C)C)c1 [Compound 36, N-(1-(benzylcarbamoyl)cyclopentyl)-3,5-di-tert-butylbenzamide]	92	96.4	251
CC(C)(C)c1cc(C(=O)NC2(C(=O)NCc3ccccc3)CCCCC2)cc(C(C)(C)C)c1O [Compound 65, N-(1-(benzylcarbamoyl)cyclohexyl)-3,5-di-tert-butyl-4-hydroxybenzamide]	104	107	123
CC(C)(C)c1cc(C(=O)NC2(C(=O)Nc3ccccn3)CC2)cc(C(C)(C)C)n1 [Compound 20, 2,6-di-tert-butyl-N-(1-(pyridin-2-ylcarbamoyl)cyclopropyl)isonicotinamide]	100	–	102
COc1ccc(CNC(=O)C2(NC(=O)Cc3cc(C(C)(C)C)c(OC)c(C(C)(C)C)c3)CCCCC2)cc1 [Compound 18, 1-(2-(3,5-di-tert-butyl-4-methoxyphenyl)acetamido)-N-(4-methoxybenzyl)cyclohexanecarboxamide]	40.7	34.5	–
CN(C)c1ccc(CNC(=O)C2(NC(=O)c3cc(C(C)(C)C)c(O)c(C(C)(C)C)c3)CCCCC2)cc1 [Compound 7, 3,5-di-tert-butyl-N-(1-(4-(dimethylamino)benzylcarbamoyl)cyclohexyl)-4-hydroxybenzamide]	99.3	102	128
CN1CCN(C(=O)C2(NC(=O)c3cc(C(C)(C)C)nc(C(C)(C)C)c3)CCCC2)CC1 [Compound 93, 2,6-di-tert-butyl-N-(1-(4-methylpiperazine-1-carbonyl)cyclopentyl)isonicotinamide]	83.9	85.5	856
CC(C)(C)NC(=O)C(C)(C)c1cc(C(=O)NC2(C(=O)NCc3ccccc3)CCCCC2)cc(C(C)(C)C(=O)NC(C)(C)C)c1 [Compound 63, 2,2′-(5-(1-(benzylcarbamoyl)cyclohexylcarbamoyl)-1,3-phenylene)bis(N-tert-butyl-2-methylpropanamide)]	66.4	82	–
CC(C)(C)c1cc(C(=O)NC2(C(=O)NCc3ccccc3)CCCCC2)cc(C(C)(C)C)c1 [Compound 44, N-(1-(benzylcarbamoyl)cyclohexyl)-3,5-di-tert-butylbenzamide]	92.5	97.3	60.4
COc1c(C(C)(C)C)cc(C(=O)NC2(C(=O)N3CCOCC3)CCCCC2)cc1C(C)(C)C [Compound 29, 3,5-di-tert-butyl-4-methoxy-N-(1-(morpholine-4-carbonyl)cyclohexyl)benzamide]	85.8	90.5	67.6
CC(C)(C(N)=O)c1cccc(C(=O)NC2(C(=O)NCc3cccc(C(F)(F)F)c3)CCCCC2)c1 [Compound 121, 3-(1-amino-2-methyl-1-oxopropan-2-yl)-N-(1-(3-(trifluoromethyl)benzylcarbamoyl)cyclohexyl)benzamide]	18.6	70.8	–
CC(C)(C)c1cc(C(=O)NC2(C(=O)NCc3ccccc3)CCCCC2)cc(C(C)(C)C#N)c1 [Compound 70, N-(1-(benzylcarbamoyl)cyclohexyl)-3-tert-butyl-5-(2-cyanopropan-2-yl)benzamide]	89.8	96.3	27.4
COc1ccc(CNC(=O)C2(NC(=O)c3cc(C(C)(C)C)c(O)c(C(C)(C)C)c3)CCCCC2)cc1 [Compound 67, 3,5-di-tert-butyl-4-hydroxy-N-(1-(4-methoxybenzylcarbamoyl)cyclohexyl)benzamide]	94.4	98.6	20.6
CC(C)(C)c1cc(C(=O)NC2(C(=O)Nc3ccccn3)CC2)cc(C(C)(C)C)c1O [Compound 4, 3,5-di-tert-butyl-4-hydroxy-N-(1-(pyridin-2-ylcarbamoyl)cyclopropyl)benzamide]	68	76	355
CC(C)(C#N)c1ccc(C(=O)NC2(C(=O)NCc3cccc(C(F)(F)F)c3)Cc3ccccc3C2)cc1 [Compound 55, 2-(4-(2-cyanopropan-2-yl)benzamido)-N-(3-(trifluoromethyl)benzyl)-2,3-dihydro-1H-indene-2-carboxamide]	89	100	–
CC(C)(C#N)c1cc(C(=O)NC2(C(=O)NCc3cccc(C(F)(F)F)c3)CCCCC2)cc(C(C)(C)C#N)c1 [Compound 40, 3,5-bis(2-cyanopropan-2-yl)-N-(1-(3-(trifluoromethyl)benzylcarbamoyl)cyclohexyl)benzamide]	80	77.6	367
CC(C)(C#N)c1ccc(C(=O)NC2(C(=O)NCc3ccccc3)CCCCC2)cc1 [Compound 122, N-(1-(benzylcarbamoyl)cyclohexyl)-4-(2-cyanopropan-2-yl)benzamide]	45.2	80.5	–

SMILES	inhibition at 10 µM [%]	inhibition at 30 µM [%]	IC50 [nM]
CC(C)(C)c1cc(C(=O)NC2(C(=O)N3CCCC3)CCCC2)cc(C(C)(C)C)n1 [Compound 92, 2,6-di-tert-butyl-N-(1-(pyrrolidine-1-carbonyl)cyclopentyl)isonicotinamide]	89.5	92.2	225
CN(C)c1ccccc1CNC(=O)C1(NC(=O)c2cc(C(C)(C)C)nc(C(C)(C)C)c2)CCOCC1 [Compound 26, 2,6-di-tert-butyl-N-(4-(2-(dimethylamino)benzylcarbamoyl)tetrahydro-2H-pyran-4-yl)isonicotinamide]	49	–	–
CC(C)(C)OC(=O)N1CCC(NC(=O)c2cc(C(C)(C)C)nc(C(C)(C)C)c2)(C(=O)NCc2ccccc2)CC1 [Compound 59, tert-butyl 4-(benzylcarbamoyl)-4-(2,6-di-tert-butylisonicotinamido)piperidine-1-carboxylate]	50.2	62.5	–
Cc1cc(CNC(=O)C2(NC(=O)c3cc(C(C)(C)C)cc(C(C)(C)C)c3)CCCCC2)no1 [Compound 51, 3,5-di-tert-butyl-N-(1-((5-methylisoxazol-3-yl)methylcarbamoyl)cyclohexyl)benzamide]	106	106	63.5
Cc1cc(CNC(=O)C2(NC(=O)c3cc(C(C)(C)C)c(O)c(C(C)(C)C)c3)CC2)nn1C [Compound 2, 3,5-di-tert-butyl-N-(1-((1,5-dimethyl-1H-pyrazol-3-yl)methylcarbamoyl)cyclopropyl)-4-hydroxybenzamide]	99	104	1410
COc1c(C(C)(C)C)cc(CC(=O)NC2(C(=O)NCc3ccccc3)CCCCC2)cc1C(C)(C)C [Compound 17, N-benzyl-1-(2-(3,5-di-tert-butyl-4-methoxyphenyl)acetamido)cyclohexanecarboxamide]	48.2	90.6	–
COc1ccc(CNC(=O)C2(NC(=O)c3cc(C(C)(C)C)c(OC)c(C(C)(C)C)c3)CC2)cc1 [Compound 110, 3,5-di-tert-butyl-4-methoxy-N-(1-(4-methoxybenzylcarbamoyl)cyclopropyl)benzamide]	100	101	121
CN(C)c1cccc(CNC(=O)C2(NC(=O)c3cc(C(C)(C)C)nc(C(C)(C)C)c3)CCOCC2)c1 [Compound 25, 2,6-di-tert-butyl-N-(4-(3-(dimethylamino)benzylcarbamoyl)tetrahydro-2H-pyran-4-yl)isonicotinamide]	70.5	–	87.4
CNC(=O)C1(NC(=O)c2cc(C(C)(C)C)cc(C(C)(C)C)c2)CCCCC1 [Compound 35, 3,5-di-tert-butyl-N-(1-(methylcarbamoyl)cyclohexyl)benzamide]	92.5	98.6	1260
CC(C)(C)c1cc(C(=O)NC2(C(=O)Nc3cccc(C(F)(F)F)c3)CCOCC2)ccn1 [Compound 120, 2-tert-butyl-N-(4-(3-(trifluoromethyl)phenylcarbamoyl)tetrahydro-2H-pyran-4-yl)isonicotinamide]	61.2	–	–
COc1c(C(C)(C)C)cc(C(=O)NC2(C(=O)NCc3nccs3)CCCCC2)cc1C(C)(C)C [Compound 87, 3,5-di-tert-butyl-4-methoxy-N-(1-(thiazol-2-ylmethylcarbamoyl)cyclohexyl)benzamide]	102	104	6.04
CC(C)(C)c1cc(C(=O)NC2(C(=O)NCc3ccc(NS(C)(=O)=O)cc3)CC2)cc(C(C)(C)C)c1O [Compound 117, 3,5-di-tert-butyl-4-hydroxy-N-(1-(4-(methylsulfonamido)benzylcarbamoyl)cyclopropyl)benzamide]	74.2	101	1090
CC(C)(C)c1cc(C(=O)NC2(C(=O)NCc3ccccc3)CCCC2)cc(C(C)(C)C)n1 [Compound 95, N-(1-(benzylcarbamoyl)cyclopentyl)-2,6-di-tert-butylisonicotinamide]	94.6	101	132
COc1c(C(C)(C)C)cc(C(=O)NC2(C(=O)NCc3cnc(C)cn3)CCCCC2)cc1C(C)(C)C [Compound 88, 3,5-di-tert-butyl-4-methoxy-N-(1-((5-methylpyrazin-2-yl)methylcarbamoyl)cyclohexyl)benzamide]	96.3	96.7	14.2
CC(C)(C#N)c1cc(C(=O)NC2(C(=O)NCc3cccc(C(F)(F)F)c3)CCCCC2)ccn1 [Compound 119, 2-(2-cyanopropan-2-yl)-N-(1-(3-(trifluoromethyl)benzylcarbamoyl)cyclohexyl)isonicotinamide]	63.1	–	–
